Test results from ChEMBL document CHEMBL1201862, “PubChem BioAssay data set” (2004).
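All cell lines were grown in 96-well plates and treated with compound for 48 hours. The concentration for 50% growth inhibition is given as GI50.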 Activity calls are given as the source filed them. No stated cut-off is given here; in the data, active = GI50 up to about 1.1 µM and inactive = higher.

Experiments:
Assay in all cases: NCI-60 cell line screen, 48 h
NCI-H226 = test system: NCI-H226
UACC-257 = test system: UACC-257
CAKI-1 = test system: CAKI-1
PC-3 = test system: PC-3
DU-145 = test system: DU-145
NCI-H23 = test system: NCI-H23
IGROV-1 = test system: IGROV-1
BT-549 = test system: BT-549
Hs-578T = test system: Hs-578T
786-0 = test system: 786-0
A498 = test system: A498
LOX IMVI = test system: LOX IMVI
MCF7 = test system: MCF7
SK-MEL-28 = test system: SK-MEL-28
MDA-N = test system: MDA-N
M14 = test system: M14
EKVX = test system: EKVX
T47D = test system: T47D
K562 = test system: K562
SK-MEL-2 = test system: SK-MEL-2
SF-295 = test system: SF-295
RXF 393 = test system: RXF 393
HCC 2998 = test system: HCC 2998
OVCAR-4 = test system: OVCAR-4
MDA-MB-231 = test system: MDA-MB-231
HCT-116 = test system: HCT-116
SF-539 = test system: SF-539
HL-60 = test system: HL-60
TK-10 = test system: TK-10
SNB-75 = test system: SNB-75
SK-MEL-5 = test system: SK-MEL-5
SW-620 = test system: SW-620
HOP-92 = test system: HOP-92
HT-29 = test system: HT-29
OVCAR-5 = test system: OVCAR-5
HCT-15 = test system: HCT-15
SF-268 = test system: SF-268
A549 = test system: A549
SK-OV-3 = test system: SK-OV-3
MDA-MB-435 = test system: MDA-MB-435
KM12 = test system: KM12
MOLT-4 = test system: MOLT-4
ACHN = test system: ACHN
UO-31 = test system: UO-31
OVCAR-3 = test system: OVCAR-3
COLO 205 = test system: COLO 205
SN12C = test system: SN12C
UACC-62 = test system: UACC-62
NCI-H522 = test system: NCI-H522
OVCAR-8 = test system: OVCAR-8
NCI-H460 = test system: NCI-H460
RPMI-8226 = test system: RPMI-8226
NCI/ADR-RES = test system: NCI/ADR-RES
Malme-3M = test system: Malme-3M
SR = test system: SR
U-251 = test system: U-251
HOP-62 = test system: HOP-62
SNB-19 = test system: SNB-19
CCRF-CEM = test system: CCRF-CEM

## COc1c(Br)cc2c(c1OC)C(Br)CCC(Br)(Br)C2=O (stereo not given)
NCI-H226
  GI50: 2.21 µM (inactive)
UACC-257
  GI50: 3.17 µM (inactive)
CAKI-1
  GI50: 2.77 µM (inactive)
PC-3
  GI50: 1.44 µM (inactive)
DU-145
  GI50: 3.01 µM (inactive)
NCI-H23
  GI50: 0.386 µM (active)
IGROV-1
  GI50: 0.482 µM (active)
BT-549
  GI50: 0.527 µM (active)
Hs-578T
  GI50: 10.4 µM (inactive)
786-0
  GI50: 0.385 µM (active)
A498
  GI50: 3.32 µM (inactive)
LOX IMVI
  GI50: 0.419 µM (active)
MCF7
  GI50: 0.74 µM (active)
SK-MEL-28
  GI50: 2.5 µM (inactive)
MDA-N
  GI50: 0.242 µM (active)
M14
  GI50: 0.228 µM (active)
EKVX
  GI50: 3.93 µM (inactive)
T47D
  GI50: 1.85 µM (inactive)
K562
  GI50: 0.377 µM (active)
SK-MEL-2
  GI50: 1.1 µM (active)
SF-295
  GI50: 2.52 µM (inactive)
RXF 393
  GI50: 0.706 µM (active)
HCC 2998
  GI50: 5.08 µM (inactive)
OVCAR-4
  GI50: 1.65 µM (inactive)
MDA-MB-231
  GI50: 3.1 µM (inactive)
HCT-116
  GI50: 0.273 µM (active)
SF-539
  GI50: 1.85 µM (inactive)
HL-60
  GI50: 0.787 µM (active)
TK-10
  GI50: 3.17 µM (inactive)
SNB-75
  GI50: 9.02 µM (inactive)
SK-MEL-5
  GI50: 0.653 µM (active)
SW-620
  GI50: 0.38 µM (active)
HOP-92
  GI50: 3.3 µM (inactive)
HT-29
  GI50: 0.968 µM (active)
OVCAR-5
  GI50: 4.92 µM (inactive)
HCT-15
  GI50: 0.314 µM
SF-268
  GI50: 0.986 µM (active)
A549
  GI50: 4.34 µM (inactive)
SK-OV-3
  GI50: 2.9 µM (inactive)
MDA-MB-435
  GI50: 0.434 µM (active)
KM12
  GI50: 3.72 µM (inactive)
MOLT-4
  GI50: < 0.0183 µM (active)
ACHN
  GI50: 2.29 µM (inactive)
UO-31
  GI50: 1.37 µM (inactive)
OVCAR-3
  GI50: 1.14 µM (inactive)
COLO 205
  GI50: 1.82 µM (inactive)
SN12C
  GI50: 0.382 µM (active)
UACC-62
  GI50: 3.18 µM (inactive)
NCI-H522
  GI50: 0.393 µM (active)
OVCAR-8
  GI50: 0.378 µM (active)
NCI-H460
  GI50: 2.75 µM (inactive)
RPMI-8226
  GI50: 1.34 µM (inactive)
NCI/ADR-RES
  GI50: 0.587 µM (active)
Malme-3M
  GI50: 1.89 µM (inactive)
SR
  GI50: 0.0368 µM (active)
U-251
  GI50: 2.18 µM (inactive)
HOP-62
  GI50: 2.19 µM (inactive)
SNB-19
  GI50: 4.36 µM (inactive)

## CCC(=O)NC(Nc1cccc(F)c1C)(C(F)(F)F)C(F)(F)F
NCI-H226
  GI50: > 100 µM (inactive)
UACC-257
  GI50: > 100 µM (inactive)
CAKI-1
  GI50: > 100 µM (inactive)
PC-3
  GI50: > 100 µM (inactive)
DU-145
  GI50: > 100 µM (inactive)
NCI-H23
  GI50: > 100 µM (inactive)
IGROV-1
  GI50: > 100 µM (inactive)
BT-549
  GI50: > 100 µM (inactive)
Hs-578T
  GI50: 54.5 µM (inactive)
786-0
  GI50: > 100 µM (inactive)
A498
  GI50: > 100 µM (inactive)
LOX IMVI
  GI50: > 100 µM (inactive)
MCF7
  GI50: > 100 µM (inactive)
SK-MEL-28
  GI50: > 100 µM (inactive)
MDA-N
  GI50: > 100 µM (inactive)
M14
  GI50: > 100 µM (inactive)
EKVX
  GI50: > 100 µM (inactive)
T47D
  GI50: > 100 µM (inactive)
K562
  GI50: > 100 µM (inactive)
SK-MEL-2
  GI50: > 100 µM (inactive)
SF-295
  GI50: > 100 µM (inactive)
RXF 393
  GI50: 3.88 µM (inactive)
HCC 2998
  GI50: > 100 µM (inactive)
CCRF-CEM
  GI50: > 100 µM (inactive)
MDA-MB-231
  GI50: > 100 µM (inactive)
HCT-116
  GI50: > 100 µM (inactive)
SF-539
  GI50: > 100 µM (inactive)
HL-60
  GI50: > 100 µM (inactive)
TK-10
  GI50: > 100 µM (inactive)
SNB-75
  GI50: > 100 µM (inactive)
SK-MEL-5
  GI50: > 100 µM (inactive)
SW-620
  GI50: > 100 µM (inactive)
HOP-92
  GI50: > 100 µM (inactive)
HT-29
  GI50: > 100 µM (inactive)
OVCAR-5
  GI50: > 100 µM (inactive)
HCT-15
  GI50: > 100 µM
SF-268
  GI50: > 100 µM (inactive)
A549
  GI50: > 100 µM (inactive)
SK-OV-3
  GI50: > 100 µM (inactive)
MDA-MB-435
  GI50: > 100 µM (inactive)
KM12
  GI50: > 100 µM (inactive)
MOLT-4
  GI50: > 100 µM (inactive)
ACHN
  GI50: > 100 µM (inactive)
UO-31
  GI50: 94.6 µM (inactive)
OVCAR-3
  GI50: > 100 µM (inactive)
COLO 205
  GI50: > 100 µM (inactive)
UACC-62
  GI50: > 100 µM (inactive)
NCI-H522
  GI50: > 100 µM (inactive)
OVCAR-8
  GI50: > 100 µM (inactive)
NCI-H460
  GI50: > 100 µM (inactive)
RPMI-8226
  GI50: > 100 µM (inactive)
NCI/ADR-RES
  GI50: > 100 µM (inactive)
Malme-3M
  GI50: > 100 µM (inactive)
SR
  GI50: 75.3 µM (inactive)
U-251
  GI50: > 100 µM (inactive)
HOP-62
  GI50: > 100 µM (inactive)
SNB-19
  GI50: > 100 µM (inactive)
